# Experimental data taken from ChEMBL document CHEMBL1135311, “N-Cycloalkanoyl-L-phenylalanine derivatives as VCAM/VLA-4 antagonists” (Bioorg Med Chem Lett, 2002).
# What was measured:
# Integrin alpha-4/beta-1 [1] = target: T1, Integrin alpha-4/beta-1 (Homo sapiens, UniProt P05556+P13612); assay: Inhibitory binding concentration determined against VCAM/VLA-4 in Ramos; type: protein-complex assay
# Integrin alpha-4/beta-1 [2] = target: T1, Integrin alpha-4/beta-1; assay: Inhibitory binding concentration determined against VCAM/VLA-4 in ELISA; type: protein-complex assay
# Integrin alpha-4/beta-1 [3] = target: T1, Integrin alpha-4/beta-1; assay: Inhibition of Very late antigen 4 (VLA-4) of Ramos cell adhesion to vascular cell adhesion molecule 1 (VCAM-1); type: cell-based
# Integrin alpha-4/beta-1 [4] = target: T1, Integrin alpha-4/beta-1; assay: Inhibition of Very late antigen 4/vascular cell adhesion molecule 1 interaction in ELISA; type: protein-complex assay
# T1 sequence (P05556 whole entry): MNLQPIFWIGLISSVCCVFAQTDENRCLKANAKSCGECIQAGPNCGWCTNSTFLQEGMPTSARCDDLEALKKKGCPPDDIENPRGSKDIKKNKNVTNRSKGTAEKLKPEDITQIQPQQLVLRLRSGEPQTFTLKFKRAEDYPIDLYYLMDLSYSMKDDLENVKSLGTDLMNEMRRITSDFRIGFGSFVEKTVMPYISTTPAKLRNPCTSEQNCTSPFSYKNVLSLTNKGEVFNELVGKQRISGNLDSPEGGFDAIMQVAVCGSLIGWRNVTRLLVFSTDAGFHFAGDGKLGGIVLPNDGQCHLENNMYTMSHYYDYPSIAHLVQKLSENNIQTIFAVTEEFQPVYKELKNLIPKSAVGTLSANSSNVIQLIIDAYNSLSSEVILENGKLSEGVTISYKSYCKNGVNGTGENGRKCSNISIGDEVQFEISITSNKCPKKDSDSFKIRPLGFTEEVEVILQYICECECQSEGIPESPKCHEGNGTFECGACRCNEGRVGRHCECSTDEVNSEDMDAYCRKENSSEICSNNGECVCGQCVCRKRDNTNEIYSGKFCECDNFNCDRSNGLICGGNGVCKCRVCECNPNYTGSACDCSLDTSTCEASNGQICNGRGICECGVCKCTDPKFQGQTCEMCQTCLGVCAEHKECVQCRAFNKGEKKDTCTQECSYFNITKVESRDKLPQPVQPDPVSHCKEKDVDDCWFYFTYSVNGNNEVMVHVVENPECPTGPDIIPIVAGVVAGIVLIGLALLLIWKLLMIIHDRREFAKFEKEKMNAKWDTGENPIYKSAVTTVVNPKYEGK
# T1 sequence (P13612 whole entry): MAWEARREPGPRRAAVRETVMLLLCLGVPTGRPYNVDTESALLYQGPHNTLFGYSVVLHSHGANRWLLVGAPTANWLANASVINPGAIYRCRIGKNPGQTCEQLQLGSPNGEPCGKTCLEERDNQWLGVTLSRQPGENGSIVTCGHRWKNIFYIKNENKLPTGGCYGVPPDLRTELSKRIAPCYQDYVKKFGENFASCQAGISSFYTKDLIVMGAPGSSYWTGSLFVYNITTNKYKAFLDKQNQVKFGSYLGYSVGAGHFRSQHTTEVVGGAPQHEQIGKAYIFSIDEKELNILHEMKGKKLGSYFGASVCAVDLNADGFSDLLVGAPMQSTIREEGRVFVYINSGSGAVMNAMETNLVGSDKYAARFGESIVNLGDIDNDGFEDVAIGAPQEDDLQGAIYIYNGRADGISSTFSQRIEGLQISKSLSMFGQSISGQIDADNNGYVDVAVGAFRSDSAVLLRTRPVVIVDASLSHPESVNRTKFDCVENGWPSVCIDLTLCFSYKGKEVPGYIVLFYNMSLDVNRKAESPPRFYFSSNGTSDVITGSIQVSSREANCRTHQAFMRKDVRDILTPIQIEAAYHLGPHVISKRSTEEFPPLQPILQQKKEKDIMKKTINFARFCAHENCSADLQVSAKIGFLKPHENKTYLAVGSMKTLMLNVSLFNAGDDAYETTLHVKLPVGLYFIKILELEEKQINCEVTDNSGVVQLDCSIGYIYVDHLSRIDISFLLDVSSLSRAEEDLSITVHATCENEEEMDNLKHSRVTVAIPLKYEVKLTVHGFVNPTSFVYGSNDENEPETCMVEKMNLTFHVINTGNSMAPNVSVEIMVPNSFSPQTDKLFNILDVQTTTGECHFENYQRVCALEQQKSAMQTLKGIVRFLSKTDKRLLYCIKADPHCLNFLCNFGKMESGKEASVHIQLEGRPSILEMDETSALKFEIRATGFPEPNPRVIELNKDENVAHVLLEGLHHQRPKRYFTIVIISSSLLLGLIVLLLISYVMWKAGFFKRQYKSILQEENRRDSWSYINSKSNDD
Structure (SMILES),IC50 (Integrin alpha-4/beta-1 [1]) [nM],IC50 (Integrin alpha-4/beta-1 [2]) [nM],IC50 (Integrin alpha-4/beta-1 [3]) [nM],IC50 (Integrin alpha-4/beta-1 [4]) [nM]
O=C(Nc1ccc(C[C@H](NC(=O)C2(Cc3ccccc3)CCCC2)C(=O)O)cc1)c1c(Cl)cccc1Cl,340,6.6,,
COc1cccc(CC2(C(=O)N[C@@H](Cc3ccc(NC(=O)c4c(Cl)cccc4Cl)cc3)C(=O)O)CCCC2)c1,170,,,
CS(=O)(=O)CCCC1(C(=O)N[C@@H](Cc2ccc(NC(=O)c3c(Cl)cccc3Cl)cc2)C(=O)O)CCCC1,,,528,1.8
[N-]=[N+]=NCCC1(C(=O)N[C@@H](Cc2ccc(NC(=O)c3c(Cl)cccc3Cl)cc2)C(=O)O)CCCC1,,0.53,,
COCCC1(C(=O)N[C@@H](Cc2ccc(NC(=O)c3c(Cl)cccc3Cl)cc2)C(=O)O)CCC1,17,0.61,,
N#CCC1(C(=O)N[C@@H](Cc2ccc(NC(=O)c3c(Cl)cccc3Cl)cc2)C(=O)O)CCCC1,,1.1,,
Cn1nnnc1-c1ccc(CC2(C(=O)N[C@@H](Cc3ccc(NC(=O)c4c(Cl)cccc4Cl)cc3)C(=O)O)CCCC2)cc1,19,,,
CS(=O)(=O)CCCCC1(C(=O)N[C@@H](Cc2ccc(NC(=O)c3c(Cl)cccc3Cl)cc2)C(=O)O)CCCC1,,,8,0.15
COCCCCC1(C(=O)N[C@@H](Cc2ccc(NC(=O)c3c(Cl)cccc3Cl)cc2)C(=O)O)CCCC1,29,,,
[N-]=[N+]=NCCCCC1(C(=O)N[C@@H](Cc2ccc(NC(=O)c3c(Cl)cccc3Cl)cc2)C(=O)O)CCCC1,142,1.64,,
C=CCCC1(C(=O)N[C@@H](Cc2ccc(NC(=O)c3c(Cl)cccc3Cl)cc2)C(=O)O)CCCC1,64,,,
CSCCCCC1(C(=O)N[C@@H](Cc2ccc(NC(=O)c3c(Cl)cccc3Cl)cc2)C(=O)O)CCCC1,,,,1.1
N#CCCCCC1(C(=O)N[C@@H](Cc2ccc(NC(=O)c3c(Cl)cccc3Cl)cc2)C(=O)O)CCCC1,,0.52,,
NC(=O)NCCC1(C(=O)N[C@@H](Cc2ccc(NC(=O)c3c(Cl)cccc3Cl)cc2)C(=O)O)CCCC1,,0.46,,
Cn1nnnc1-c1ccc(CC2(C(=O)N[C@@H](Cc3ccc(NC(=O)c4c(Cl)cccc4Cl)cc3)C(=O)O)CCCCC2)cc1,61,1.3,,
COc1ccc(CC2(C(=O)N[C@@H](Cc3ccc(NC(=O)c4c(Cl)cccc4Cl)cc3)C(=O)O)CCCC2)cc1,37,0.6,,
O=C(Nc1ccc(C[C@H](NC(=O)C2(c3ccccc3)CCCC2)C(=O)O)cc1)c1c(Cl)cccc1Cl,,1.7,,
CS(=O)(=O)CCC1(C(=O)N[C@@H](Cc2ccc(NC(=O)c3c(Cl)cccc3Cl)cc2)C(=O)O)CCCC1,,,,0.8
CNC(=O)NCCC1(C(=O)N[C@@H](Cc2ccc(NC(=O)c3c(Cl)cccc3Cl)cc2)C(=O)O)CCCC1,11,0.1,,
COCC1(C(=O)N[C@@H](Cc2ccc(NC(=O)c3c(Cl)cccc3Cl)cc2)C(=O)O)CCCC1,134,1,,
COCCC1(C(=O)N[C@@H](Cc2ccc(NC(=O)c3c(Cl)cccc3Cl)cc2)C(=O)O)CCCC1,12,,,
CC(=O)CCCC1(C(=O)N[C@@H](Cc2ccc(NC(=O)c3c(Cl)cccc3Cl)cc2)C(=O)O)CCCC1,350,7.8,,
Cn1nnnc1-c1cccc(CC2(C(=O)N[C@@H](Cc3ccc(NC(=O)c4c(Cl)cccc4Cl)cc3)C(=O)O)CCCC2)c1,100,0.4,,
O=C(Nc1ccc(C[C@H](NC(=O)C2(Cc3ccccc3Cl)CCCC2)C(=O)O)cc1)c1c(Cl)cccc1Cl,350,,,
CN(C)CCC1(C(=O)N[C@@H](Cc2ccc(NC(=O)c3c(Cl)cccc3Cl)cc2)C(=O)O)CCCC1,89,3.4,,
O=C(NCCC1(C(=O)N[C@@H](Cc2ccc(NC(=O)c3c(Cl)cccc3Cl)cc2)C(=O)O)CCCC1)Nc1ccccc1,914,5.8,,
COc1ccc(CC2(C(=O)N[C@@H](Cc3ccc(NC(=O)c4c(Cl)cccc4Cl)cc3)C(=O)O)CCCC2)cc1OC,95,0.8,,
CS(=O)(=O)CCCCC1(C(=O)N[C@@H](Cc2ccc(NC(=O)c3c(Cl)cccc3Cl)cc2)C(=O)O)CCC1,,,6,0.1
C[S+]([O-])CCC1(C(=O)N[C@@H](Cc2ccc(NC(=O)c3c(Cl)cccc3Cl)cc2)C(=O)O)CCCC1 (some centres undefined),,,,0.21
